Data taken from patent US20170314056A1, “METHOD OF USING NEAR INFRARED FLUORESCENT DYES FOR IMAGING AND TARGETING CANCERS” (priority 2010, published 2017).
Entries after “also recorded” stand apart in the source; their conditions may differ. Where two headings read alike, the source gives them in different places.

Experiments:
[1] = test system: human cancer cells; experiment: Uptake of NIR dyes by cultured human cancer cell lines (confocal NIR imaging); type: cell-based
Protocol: (§1) Cells (1×10^4/well) were seeded on vitronectin-coated four-well chamber slides (Nalgen Nunc, Naperville, Ill.) and incubated with T-medium containing 5% FBS for 24 h. After the cells had attached to the chamber slides, the cells were washed with PBS (Phosphate Buffered Saline) and exposed to the cyanine dye at a concentration of 20 μM in T-medium. The slides were incubated at 37° C. for 30 min, washed twice with PBS to remove excess dyes, and cells were fixed with 10% formaldehyde at 4° C. The slides were then washed twice with PBS and covered with glass coverslips with an aqueous mounting medium (Sigma-Aldrich, St. Louis, Mo.). Images were recorded by confocal laser microscopy (Zeiss LSM 510 META, Germany) using a 633 nm excitation laser and 670-810 nm long pass filter, or a fluorescence microscope (Olympus 1×71; Olympus, Melville, N.Y.) equipped with a 75 W Xenon lamp and an Indo-Cyanine Green filter cube (excitation 750-800 nm; emission 820-860 nm) (Chroma, Rockingham, Vt.).
(§2) Cells (1×10^4/well) were seeded on vitronectin-coated four-well chamber slides (Nalgen Nunc, Naperville, Ill.) and incubated with T-medium containing 5% FBS for 24 h. After the cells had attached to the chamber slides, the cells were washed with PBS (Phosphate Buffered Saline) and exposed to the cyanine dye at a concentration of 20 μM in medium. The slides were incubated at 37° C. for 30 min, washed twice with PBS to remove excess dyes, and fixed with 10% formaldehyde at 4° C. The slides were then washed twice with PBS and covered with glass coverslips with aqueous mounting medium (Sigma-Aldrich, St. Louis, Mo.). Images were recorded by confocal laser microscopy (Zeiss LSM 510 META, Germany) equipped with 633 nm excitation laser and 670-810 nm long pass filter.

[2] = test system: normal human cells; experiment: Uptake of NIR dyes by cultured normal human cells; type: cell-based; conditions: HS-27A/BMC, NPE, NPF, HUVEC-CS, HEK293; 20 μM dye, 30 min
Protocol: as §1, §2

[3] = test system: ARCaPM cells; experiment: Subcellular co-localization with mitochondria and lysosome tracking dyes; type: cell-based, human; conditions: Mito Tracker and Lyso Tracker co-staining
Protocol: Cells were plated on live-cell imaging chambers (World Precision Instrument, Sarasota, Fla.) overnight. Cells were exposed to cyanine dyes at different concentrations and dye uptake was evaluated by a Perkin-Elmer Ultraview ERS spinning disc confocal microscope. This system was mounted on a Zeiss Axiovert 200m inverted microscope equipped with a 37° C. stage warmer, incubator, and constant CO2 perfusion. A 63× or 100× Zeiss oil objective (numerical aperture, 1.4) was used for live cell images and a Z-stack was created using the attached piezoelectric z-stepper motor. The 633 nm laser line of an argon ion laser (set at 60% power) was used to excite the cyanine dyes. […] For comparative studies, the exposure time and laser intensity were kept identical for accurate intensity measurements. Pixel intensity was quantified using Metamorph 6.1 (Universal Imaging, Downingtown, Pa.) and the mean pixel intensity was generated as grey level using the Region Statistics feature on the software (23). To determine the dye uptake by the mitochondria, the mitochondrial tracking dye Mito Tracker Orange CMTMROS (Molecular Probes, Carlsbad, Calif.) was used. To determine the dye localization in lysosomes, a lysosome tracking dye, Lyso Tracker Green DND-26 (Molecular Probes, Carlsbad, Calif.), was selected. […]

[4] = for body weight: daily intraperitoneal injection, Balb/c mice
Protocol: In control mice, the same volume of PBS was injected. The body weight and lethality of these mice were closely followed for 28 days.

CCCN1C(=CC=C2CCCC(C=CC3=[N+](CCC)c4ccccc4C3(C)C)=C2Cl)C(C)(C)c2ccccc21.[I-] [IR-780, 2-[2-[2-Chloro-3-[(1,3-dihydro-3,3-dimethyl-1-propyl-2H-indol-2-ylidene)ethylidene]-1-cyclohexen-1-yl]ethenyl]-3,3-dimethyl-1-propylindolium iodide]
dye uptake into cancer cells at 0° C. ([1]; 0° C., data not shown): no dye uptake
uptake of dye by human cancer cell lines in culture ([1]; panel of prostate, breast, cervical, lung, liver, pancreatic, renal, bladder and leukemia lines, 20 μM dye, 30 min, confocal microscope): preferentially taken up and retained by cancer but not normal cells; also recorded: a wide range of cancer cells but not normal cells were taking up these dyes; also recorded: significant uptake
uptake of dye by normal human cells in culture [2]: unable to be taken up by normal cells; also recorded: very low uptake
subcellular localization of the dye [3]: co-localized with both mitochondria and lysosomes; also recorded: Co-localization of IR-780 and mitochondrial and lysosome were shown
body weight ([4]; 0 day, 1X imaging dose): 19.00 g
body weight ([4]; 0 day, 10X imaging dose): 20.71 g
body weight ([4]; 0 day, 100X imaging dose): 20.14 g
day after injection at which all mice were killed ([4]; 100× excess of the imaging dose): 2 days
body weight ([4]; 1 day, 1X imaging dose): 19.02 g
body weight ([4]; 1 day, 10X imaging dose): 20.69 g
body weight ([4]; 1 day, 100X imaging dose): 0 g
body weight ([4]; 2 day, 1X imaging dose): 19.71 g
body weight ([4]; 2 day, 10X imaging dose): 20.70 g
body weight ([4]; 2 day, 100X imaging dose): 0 g
body weight ([4]; 3 day, 1X imaging dose): 20.01 g
body weight ([4]; 3 day, 10X imaging dose): 21.03 g
body weight ([4]; 3 day, 100X imaging dose): 0 g
body weight ([4]; 4 day, 1X imaging dose): 20.32 g
body weight ([4]; 4 day, 10X imaging dose): 21.24 g
body weight ([4]; 4 day, 100X imaging dose): 0 g
body weight ([4]; 5 day, 1X imaging dose): 20.56 g
body weight ([4]; 5 day, 10X imaging dose): 21.89 g
body weight ([4]; 5 day, 100X imaging dose): 0 g
body weight ([4]; 6 day, 1X imaging dose): 20.97 g
body weight ([4]; 6 day, 10X imaging dose): 22.00 g
body weight ([4]; 6 day, 100X imaging dose): 0 g
body weight ([4]; 7 day, 1X imaging dose): 21.81 g
body weight ([4]; 7 day, 10X imaging dose): 22.56 g
body weight ([4]; 7 day, 100X imaging dose): 0 g
body weight ([4]; 14 day, 1X imaging dose): 23.56 g
body weight ([4]; 14 day, 10X imaging dose): 24.00 g
body weight ([4]; 14 day, 100X imaging dose): 0 g
body weight ([4]; 28 day, 1X imaging dose): 24.44 g
body weight ([4]; 28 day, 10X imaging dose): 24.56 g
body weight ([4]; 28 day, 100X imaging dose): 0 g
